# What was measured:
# [1] = system: Staphylococcus aureus; assay: Antibacterial activity against methicillin-sensitive Staphylococcus aureus after 18 to 20 hrs by CLSI-protocol based broth microdilution method; type: functional; settings: Staphylococcus aureus; read-out: MIC
# [2] = system: Staphylococcus aureus; assay: Antibacterial activity against methicillin-resistant Staphylococcus aureus after 18 to 20 hrs by CLSI-protocol based broth microdilution method; type: functional
# [3] = system: Staphylococcus epidermidis; assay: Antibacterial activity against methicillin-sensitive Staphylococcus epidermidis after 18 to 20 hrs by CLSI-protocol based broth microdilution method; type: functional
# [4] = system: Staphylococcus epidermidis; assay: Antibacterial activity against methicillin-resistant Staphylococcus epidermidis after 18 to 20 hrs by CLSI-protocol based broth microdilution method; type: functional
# [5] = system: Streptococcus pneumoniae; assay: Antibacterial activity against penicillin-resistant Streptococcus pneumoniae after 18 to 20 hrs by CLSI-protocol based broth microdilution method; type: functional
# [6] = system: Streptococcus pyogenes; assay: Antibacterial activity against Streptococcus pyogenes after 18 to 20 hrs by CLSI-protocol based broth microdilution method; type: functional; settings: Streptococcus pyogenes; read-out: MIC
# [7] = system: Neisseria gonorrhoeae; assay: Antibacterial activity against Neisseria gonorrhoeae after 18 to 20 hrs by CLSI-protocol based agar microdilution method; type: functional
# [8] = AUCt in CD1 mouse at 10 mg/kg, po by LC-MS/MS analysis; type: ADME, organism-based; settings: in vivo
# [9] = MRT in CD1 mouse at 10 mg/kg, po by LC-MS/MS analysis; type: ADME, organism-based; settings: in vivo
# [10] = Cmax in CD1 mouse at 10 mg/kg, po by LC-MS/MS analysis; type: ADME, organism-based; set-up: dose 10 mg/kg, route oral; settings: in vivo
# [11] = Tmax in CD1 mouse at 10 mg/kg, po by LC-MS/MS analysis; type: ADME, organism-based; settings: in vivo
# [12] = Elimination half life in CD1 mouse at 10 mg/kg, po by LC-MS/MS analysis; type: ADME, organism-based; settings: in vivo, read-out: beta t1/2 (converted)
# [13] = Solubility of the compound in pH 6.8 intestinal juice incubated at 37 degC for 24 hrs by LC/MS/MS analysis; type: physicochemical
# [14] = Solubility of the compound in pH 1.2 gastric juice incubated at 37 degC for 24 hrs by LC/MS/MS analysis; type: physicochemical
# [15] = Solubility of the compound in water incubated at 37 degC for 24 hrs by LC/MS/MS analysis; type: physicochemical
# [16] = target: DNA topoisomerase 2-alpha (Homo sapiens, UniProt P11388); assay: Inhibition of human topoisomerase-2alpha using catenated DNA as substrate after 30 mins by ethidium bromide-based gel electrophoresis
# [17] = system: Staphylococcus aureus; assay: Antibacterial activity against methicillin-sensitive Staphylococcus aureus infected in Kunming mouse treated with 50 mg/kg cytochrome P450 inhibitor ABT dosed subcutaneously at 0.5 and 4.0 hrs postinfection followed by and measured at 7 to 14 days post treatment by Bliss method; type: functional; settings: sc
# [18] = system: Staphylococcus aureus; assay: Antibacterial activity against methicillin-resistant Staphylococcus aureus infected in Kunming mouse treated with 50 mg/kg cytochrome P450 inhibitor ABT dosed subcutaneously at 0.5 and 4.0 hrs postinfection followed by and measured at 7 to 14 days post treatment by Bliss method; type: functional; settings: sc
# [19] = target: DNA gyrase (Staphylococcus aureus, UniProt P0A0K8+P20831)
# DNA gyrase, sequence (P0A0K8 whole entry): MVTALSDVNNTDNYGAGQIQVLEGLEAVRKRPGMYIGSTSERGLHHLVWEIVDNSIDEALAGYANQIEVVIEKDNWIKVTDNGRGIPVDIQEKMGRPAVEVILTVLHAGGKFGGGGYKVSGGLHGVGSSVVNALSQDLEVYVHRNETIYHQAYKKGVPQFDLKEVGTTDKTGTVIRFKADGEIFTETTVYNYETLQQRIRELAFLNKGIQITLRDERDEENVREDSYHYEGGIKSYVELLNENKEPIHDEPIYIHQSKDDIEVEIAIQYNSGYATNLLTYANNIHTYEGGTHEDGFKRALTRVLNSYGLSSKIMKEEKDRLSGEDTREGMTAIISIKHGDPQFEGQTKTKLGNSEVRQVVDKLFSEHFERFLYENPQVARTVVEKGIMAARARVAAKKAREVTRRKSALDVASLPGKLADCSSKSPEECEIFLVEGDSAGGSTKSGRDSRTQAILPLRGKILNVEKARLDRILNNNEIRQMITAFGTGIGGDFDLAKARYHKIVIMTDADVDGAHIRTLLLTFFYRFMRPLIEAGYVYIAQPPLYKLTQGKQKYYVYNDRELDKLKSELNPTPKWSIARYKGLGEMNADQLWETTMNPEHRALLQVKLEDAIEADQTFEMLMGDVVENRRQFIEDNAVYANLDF
# DNA gyrase, sequence (P20831 whole entry): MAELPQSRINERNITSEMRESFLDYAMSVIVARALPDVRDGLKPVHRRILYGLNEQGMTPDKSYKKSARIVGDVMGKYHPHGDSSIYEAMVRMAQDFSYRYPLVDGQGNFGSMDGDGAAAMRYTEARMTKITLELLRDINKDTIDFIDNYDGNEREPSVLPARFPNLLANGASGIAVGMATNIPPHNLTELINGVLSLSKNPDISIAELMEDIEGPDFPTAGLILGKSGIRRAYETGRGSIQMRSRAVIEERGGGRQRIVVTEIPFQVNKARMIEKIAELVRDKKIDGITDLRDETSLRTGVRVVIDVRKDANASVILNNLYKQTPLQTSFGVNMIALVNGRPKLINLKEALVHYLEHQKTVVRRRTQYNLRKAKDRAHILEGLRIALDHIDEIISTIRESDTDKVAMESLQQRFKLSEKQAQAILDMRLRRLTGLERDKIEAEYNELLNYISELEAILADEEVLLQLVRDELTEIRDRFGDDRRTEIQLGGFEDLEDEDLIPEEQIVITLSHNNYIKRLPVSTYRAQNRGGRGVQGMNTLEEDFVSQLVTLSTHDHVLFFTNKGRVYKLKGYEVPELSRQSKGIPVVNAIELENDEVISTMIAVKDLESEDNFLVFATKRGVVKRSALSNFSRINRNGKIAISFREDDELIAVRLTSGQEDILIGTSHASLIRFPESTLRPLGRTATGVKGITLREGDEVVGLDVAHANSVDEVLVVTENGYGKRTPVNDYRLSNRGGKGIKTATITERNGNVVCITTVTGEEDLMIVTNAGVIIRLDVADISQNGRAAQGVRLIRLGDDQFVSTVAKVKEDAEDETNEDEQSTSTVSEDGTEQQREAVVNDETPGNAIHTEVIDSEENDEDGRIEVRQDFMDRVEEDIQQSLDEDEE
# Description: Inhibition of Staphylococcus aureus DNA gyrase supercoiling activity using relaxed pHOT-1 DNA as substrate after 60 mins by ethidium bromide-based gel electrophoresis
# DNA topoisomerase 2-alpha, sequence (P11388 whole entry): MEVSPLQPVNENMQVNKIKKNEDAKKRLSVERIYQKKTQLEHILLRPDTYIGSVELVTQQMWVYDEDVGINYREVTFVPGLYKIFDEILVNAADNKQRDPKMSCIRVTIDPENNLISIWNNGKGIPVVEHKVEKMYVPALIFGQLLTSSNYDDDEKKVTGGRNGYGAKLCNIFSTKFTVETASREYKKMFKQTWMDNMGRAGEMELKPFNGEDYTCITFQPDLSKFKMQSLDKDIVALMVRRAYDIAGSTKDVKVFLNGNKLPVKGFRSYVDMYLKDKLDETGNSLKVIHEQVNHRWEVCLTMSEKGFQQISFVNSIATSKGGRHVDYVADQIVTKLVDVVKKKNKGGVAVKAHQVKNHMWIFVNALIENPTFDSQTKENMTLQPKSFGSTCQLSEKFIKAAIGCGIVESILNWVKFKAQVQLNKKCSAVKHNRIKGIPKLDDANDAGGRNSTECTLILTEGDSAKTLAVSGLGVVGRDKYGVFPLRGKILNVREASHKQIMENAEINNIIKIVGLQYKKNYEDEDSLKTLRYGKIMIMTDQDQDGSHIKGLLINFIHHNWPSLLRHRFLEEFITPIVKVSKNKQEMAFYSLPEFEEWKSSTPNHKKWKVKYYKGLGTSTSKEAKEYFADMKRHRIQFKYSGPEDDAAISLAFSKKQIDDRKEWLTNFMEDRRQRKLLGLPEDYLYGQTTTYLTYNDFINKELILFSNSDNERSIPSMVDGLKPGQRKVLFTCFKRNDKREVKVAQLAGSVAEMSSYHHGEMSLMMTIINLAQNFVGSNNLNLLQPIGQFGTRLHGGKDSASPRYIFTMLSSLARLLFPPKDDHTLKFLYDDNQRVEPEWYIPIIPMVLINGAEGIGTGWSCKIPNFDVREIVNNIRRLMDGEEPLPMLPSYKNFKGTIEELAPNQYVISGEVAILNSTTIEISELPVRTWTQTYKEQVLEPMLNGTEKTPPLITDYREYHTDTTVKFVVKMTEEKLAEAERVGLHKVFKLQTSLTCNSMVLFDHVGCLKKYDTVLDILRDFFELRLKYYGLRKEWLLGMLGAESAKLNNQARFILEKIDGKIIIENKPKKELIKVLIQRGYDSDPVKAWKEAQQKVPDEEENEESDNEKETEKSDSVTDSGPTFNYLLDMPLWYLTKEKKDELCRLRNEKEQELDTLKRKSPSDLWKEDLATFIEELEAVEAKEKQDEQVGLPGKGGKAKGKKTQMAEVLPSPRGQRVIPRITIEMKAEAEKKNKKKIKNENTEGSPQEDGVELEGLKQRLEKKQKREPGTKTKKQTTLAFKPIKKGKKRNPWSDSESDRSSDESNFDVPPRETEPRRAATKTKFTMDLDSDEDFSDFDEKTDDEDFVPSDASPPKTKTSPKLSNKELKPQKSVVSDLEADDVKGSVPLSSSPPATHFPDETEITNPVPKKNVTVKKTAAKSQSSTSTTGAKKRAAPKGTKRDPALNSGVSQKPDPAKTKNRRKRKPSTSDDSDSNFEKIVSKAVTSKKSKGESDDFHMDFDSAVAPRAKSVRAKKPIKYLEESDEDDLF
compound,measurement,setting,value
C[C@@H]1CN2c3c(cc4c(N5CCOC5=O)noc4c3F)CC3(C(=O)NC(=O)NC3=O)[C@H]2[C@H](C)O1,MIC,[1],0.125 to 0.25 µg/mL
same,MIC,[2],0.03 to 1 µg/mL
same,MIC,[3],0.06 to 0.25 µg/mL
same,MIC,[4],0.03 to 0.25 µg/mL
same,MIC,[5],0.25 to 1 µg/mL
same,MIC,[6],0.25 to 0.5 µg/mL
same,MIC50,[7],0.03 µg/mL
same,MIC90,[7],0.125 µg/mL
same,AUC(0-t),[8],748 ng·h/mL
same,MRT,[9],7.06 h
same,Cmax,[10],183 ng/mL
same,Tmax,[11],0.58 h
same,half-life,[12],3.41 h
same,solubility at 24 h,[13],139 µM
same,solubility at 24 h,[14],121 µM
same,solubility at 24 h,[15],128 µM
same,IC50,[16],> 200 µM
same,ED50,[17],11 mg/kg
same,ED50,[18],11.5 mg/kg
same,IC50,[19],24.3 µM
